According to article PMC6508677, “Identification of druggable small molecule antagonists of the Plasmodium falciparum hexose transporter PfHT and assessment of ligand access to the glucose permeation pathway via FLAG-mediated protein engineering” (PLoS ONE, 2019):
Several values for one entry are separate records, joined by “and”; a condition that tells them apart may be missing. Equal entries are not always repeated. Where two headings read alike, the source gives them in different places.

Key:
hGLUT4 = molecular target: T1, hGLUT4 (Homo sapiens, UniProt P14672); assay: 2-DG uptake by HEK293 cells overexpressing hGLUT4; format: cell-based; conditions: for remaining activity at 0.001 µM: 0.001 µM compound; for remaining activity at 0.001 µM / remaining activity at 1.25 µM / remaining activity at 2.5 µM / remaining activity at 5 µM / remaining activity at 10 µM / remaining activity at 20 µM / remaining activity at 40 µM / remaining activity at 80 µM / remaining activity at 160 µM / remaining activity at 225 µM: read-out: 2-DG uptake (percent uptake relative to vehicle), AVE per experiment; for remaining activity at 1.25 µM: 1.25 µM compound; for remaining activity at 20 µM: 20 µM compound; for remaining activity at 40 µM: 40 µM compound; for remaining activity at 80 µM: 80 µM compound; for remaining activity at 160 µM: 160 µM compound; for remaining activity at 225 µM: 225 µM compound; for IC50: IC50 for inhibition of 2-DG uptake
T1 construct: expressed in transfected cells; host or cells: HEK293 (HEK293-FLIP, native hGLUT1 knocked down by shRNA)
T1 sequence (P14672 1-509): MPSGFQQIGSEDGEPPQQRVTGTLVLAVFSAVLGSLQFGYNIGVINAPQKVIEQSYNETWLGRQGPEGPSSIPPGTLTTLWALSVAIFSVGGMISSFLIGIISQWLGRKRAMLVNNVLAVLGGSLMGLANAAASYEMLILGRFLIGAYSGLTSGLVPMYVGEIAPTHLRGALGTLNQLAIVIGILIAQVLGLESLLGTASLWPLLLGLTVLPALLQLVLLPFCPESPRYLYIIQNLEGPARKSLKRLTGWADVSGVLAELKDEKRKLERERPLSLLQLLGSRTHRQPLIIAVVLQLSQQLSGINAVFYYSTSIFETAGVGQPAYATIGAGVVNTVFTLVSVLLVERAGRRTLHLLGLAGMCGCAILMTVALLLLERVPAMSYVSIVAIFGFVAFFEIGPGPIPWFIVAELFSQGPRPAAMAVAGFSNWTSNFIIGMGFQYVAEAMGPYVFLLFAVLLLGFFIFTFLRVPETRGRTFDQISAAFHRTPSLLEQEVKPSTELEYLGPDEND
Text: (§1) Generation of HEK293 cells overexpressing PfHT and human GLUTs 1–4 were described elsewhere. Briefly, HEK293 cells were transfected with pcDNA3.1 FLII12Pglu-7006 (Addgene), containing the fluorescence resonance energy transfer (FRET) glucose sensor (HEK293-FLIP) and PfHT, human GLUT1 (hGLUT1), hGLUT2, hGLUT3, hGLUT4, hGLUT5 or hGLUT8 using Optifect (Life Technologies) according to manufacturer’s specifications. To increase retention of GLUT8 at the plasma membrane, the dileucine sorting signal E^7E^8XXXLL was modified to R^7R^8XXXLL as described in [17]. Stable transfectants were selected for G418 and hygromycin resistance to select for FRET sensor and hexose transporter, respectively. HEK293-FLIP cells were also used to generate cells stably transfected with FLAG-tagged PfHT (FTPfHT). FLAG tag ([…]) followed by a triple glycine linker and a tobacco etch virus (TEV) protease site (ENLYFQS) followed by a triple glycine linker was added to the N-terminus of PfHT via PCR [18] using Phusion Hot Start II High-Fidelity DNA Polymerase (Fisher Scientific). Single clones were selected by comparing their abilities to transport glucose as assayed via FRET and radiolabeled hexose uptake. In all cell lines, except for HEK293 cells overexpressing hGLUT1 and hGLUT5, native hGLUT1 was knocked down using shRNA as described elsewhere. Transcript levels of the individual GLUTs expressed in each cell line are as described in [13, 15] and in S1 Fig.
(§2) Glucose uptake by P. falciparum was performed essentially as described. P. falciparum strain 3D7 was cultured in 100 mm tissue culture dishes (Techno Plastic Products) in a 2% suspension of human erythrocytes and RPMI 1640 medium until reaching > 7.5% parasitemia. Cells were pelleted via centrifugation and resuspended in RPMI 1640 medium. To determine the uptake of radiolabeled glucose into the parasite, parasites were isolated from infected erythrocytes by permeablization with saponin (0.05 w/v), followed by centrifugation, aspiration of supernatant and washing of the pellet 3X with saline solution (135 mM NaCl, 2 mM KCl, 25 mM HEPES, 0.2 mM glucose and 1 mM MgCl2; pH 7.1) to remove cellular debris. WU-1 or DMSO vehicle were added to 100 μl parasites (resuspended in saline) 5 min prior to the addition of 100 μl [^14C]2-DOG (0.2- μCi/ml final concentration). 2-DG uptake was stopped after 2 min by layering the entire reaction over 300 μl of an oil mixture (5:4 mix of dibutyl phthalate / dinonyl phthalate) in Eppendorf tubes and centrifuged at 15,850 × g for 2 mins. The ratio of the estimated intracellular concentration of radiolabel relative to the extracellular concentration were calculated as described. Uptake of radiolabeled hexose into HEK293 cells was measured in glucose-free HBSS as described previously. Briefly, cells were plated at 400,000 cells/well overnight at 37°C in 24-well plates pre-treated with PEI. After 30-min incubation at 37°C in glucose-free HBSS in the presence of vehicle or increasing concentrations of compound, 2-DG uptake was measured in glucose-free HBSS for 4 min at 37°C. Cultures were washed in ice-cold 1X PBS and lysed in 0.1% Triton X-100 in 1X PBS. Radiolabeled hexose uptake was determined by liquid scintillation counting (Ultima Gold, Thermo Fisher) and normalized to total protein per well. Uptake data are plotted as percent uptake relative to vehicle-treated cells. Kinetic analyses were performed using the indicated concentrations of substrate and WU-1, with quenching of uptake after 1 min incubation. Incubation times had been previously determined as being in the linear range of time-dependent radiolabeled hexose uptake (2 min for 2-DG uptake into freed parasites; 2 and 4 min for D-Frc and 2-DG uptake HEK cell lines, respectively). Data were fit by least squares nonlinear regression analysis using GraphPad Prism 6.0 software.

hGLUT2 = molecular target: T2, hGLUT2 (Homo sapiens, UniProt P11168); assay: 2-DG uptake by HEK293 cells overexpressing hGLUT2; format: cell-based; conditions: for remaining activity at 0.001 µM: 0.001 µM compound; for remaining activity at 1.25 µM: 1.25 µM compound; for remaining activity at 5 µM / inhibition at 5 µM: 5 μM compound; for remaining activity at 80 µM: 80 µM compound; for remaining activity at 160 µM: 160 µM compound; for IC50: IC50 for inhibition of 2-DG uptake
T2 construct: expressed in transfected cells; host or cells: HEK293 (HEK293-FLIP, native hGLUT1 knocked down by shRNA)
T2 sequence (P11168 1-524): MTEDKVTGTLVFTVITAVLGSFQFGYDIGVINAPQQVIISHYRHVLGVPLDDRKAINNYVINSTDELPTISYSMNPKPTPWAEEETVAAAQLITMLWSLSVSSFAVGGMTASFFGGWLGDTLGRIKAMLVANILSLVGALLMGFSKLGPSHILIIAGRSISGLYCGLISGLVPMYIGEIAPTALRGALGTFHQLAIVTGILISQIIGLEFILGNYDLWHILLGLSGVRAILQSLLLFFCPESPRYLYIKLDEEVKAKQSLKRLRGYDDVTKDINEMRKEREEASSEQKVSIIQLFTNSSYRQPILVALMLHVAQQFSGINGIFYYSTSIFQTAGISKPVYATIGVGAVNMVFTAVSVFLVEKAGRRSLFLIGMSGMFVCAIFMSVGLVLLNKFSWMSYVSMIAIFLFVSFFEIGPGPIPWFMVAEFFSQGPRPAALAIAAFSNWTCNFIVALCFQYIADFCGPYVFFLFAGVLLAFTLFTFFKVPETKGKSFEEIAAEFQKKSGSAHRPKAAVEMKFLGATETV
Text: as §1, §2

[1] = HEK293, 4 min, GLUT4, 2.5 µM compound
[2] = HEK293, 4 min, GLUT4, 5 µM compound
[3] = HEK293, 4 min, GLUT4, 10 µM compound
[4] = GLUT4 cell line, mean/reported value
[5] = HEK293, 4 min, GLUT2, read-out: 2-DG uptake (percent uptake relative to vehicle), AVE per experiment
[6] = HEK293, 4 min, GLUT2, 2.5 µM compound, read-out: 2-DG uptake (percent uptake relative to vehicle), AVE per experiment
[7] = HEK293, 4 min, GLUT2, read-out: % Inhibition of 2-DG uptake vs vehicle
[8] = GLUT2 cell line, mean/reported value
[9] = individual experiments, GLUT2, Expt 1-3

SMILES | remaining activity at 0.001 µM (hGLUT4; HEK293, 4 min, GLUT4) [%] | remaining activity at 1.25 µM (hGLUT4; HEK293, 4 min, GLUT4) [%] | remaining activity at 2.5 µM (hGLUT4; [1]) [%] | remaining activity at 5 µM (hGLUT4; [2]) [%] | remaining activity at 10 µM (hGLUT4; [3]) [%] | remaining activity at 20 µM (hGLUT4; HEK293, 4 min, GLUT4) [%] | remaining activity at 40 µM (hGLUT4; HEK293, 4 min, GLUT4) [%] | remaining activity at 80 µM (hGLUT4; HEK293, 4 min, GLUT4) [%] | remaining activity at 160 µM (hGLUT4; HEK293, 4 min, GLUT4) [%] | remaining activity at 225 µM (hGLUT4; HEK293, 4 min, GLUT4) [%] | IC50 (hGLUT4; [4]) [µM] | remaining activity at 0.001 µM (hGLUT2; [5]) [%] | remaining activity at 1.25 µM (hGLUT2; [5]) [%] | remaining activity at 2.5 µM (hGLUT2; [6]) [%] | remaining activity at 5 µM (hGLUT2; [5]) [%] | inhibition at 5 µM (hGLUT2; [7]) [%] | remaining activity at 80 µM (hGLUT2; [5]) [%] | remaining activity at 160 µM (hGLUT2; [5]) [%] | IC50 (hGLUT2; [8]) [µM] | IC50 (hGLUT2; [9]) | further results
COc1c(Br)cc([N+](=O)[O-])c(OC)c1C(=O)NC(=O)Nc1c(C)cccc1Cl [WU-2, 3-(3-bromo-2,6-dimethoxy-5-nitrobenzoyl)-1-(2-chloro-6-methylphenyl)urea] | 100 | 95.3 | 91.7 | 86.8 | 88.3 | 74.1 | 66.7 | 61 | 55.7 | 63.7 | 18.5 ± 3.5 | 100 | 102 | 83.6 | 74.5 | 10 to 12 | 35.2 | 42.1 | 15.9 ± 2.5 | 14.1 µM and 20.8 µM and 12.9 µM | Maximum Inhibition (%) (hGLUT4; 2-DG uptake, GLUT4 cell line): 40.0%; inhibition at 5 µM (hGLUT4; HEK293, 4 min, GLUT4, 5 µM compound, read-out: % Inhibition of 2-DG uptake vs vehicle): 10 to 12%; IC50 (hGLUT4; individual experiments, GLUT4, Expt 1-3): 14.2 µM and 25.4 µM and 15.9 µM; Maximum Inhibition (%) (hGLUT2; 2-DG uptake, GLUT2 cell line): 62.0%; remaining activity at 10 µM (hGLUT2; HEK293, 4 min, GLUT2, 10 µM compound, read-out: 2-DG uptake (percent uptake relative to vehicle), AVE per experiment): 62.8%; remaining activity at 20 µM (hGLUT2; HEK293, 4 min, GLUT2, 20 µM compound, read-out: 2-DG uptake (percent uptake relative to vehicle), AVE per experiment): 64%; remaining activity at 40 µM (hGLUT2; HEK293, 4 min, GLUT2, 40 µM compound, read-out: 2-DG uptake (percent uptake relative to vehicle), AVE per experiment): 39.5%; remaining activity at 225 µM (hGLUT2; HEK293, 4 min, GLUT2, 225 µM compound, read-out: 2-DG uptake (percent uptake relative to vehicle), AVE per experiment): 30.9%
COc1cc(/C=C2\COC/C(=C\c3cc(OC)c(OC)c(OC)c3)C2=O)cc(OC)c1OC [WU-5, (3E,5E)-3,5-bis[(3,4,5-trimethoxyphenyl)methylidene]oxan-4-one] |  |  |  |  |  |  |  |  |  |  |  |  |  |  |  |  |  |  |  |  | inhibition at 2.5 µM (hGLUT4; HEK293, 4 min, GLUT4, 2.5 µM compound, read-out: % Inhibition of 2-DG uptake vs vehicle): ~45%; inhibition at 2.5 µM (hGLUT2; HEK293, 4 min, GLUT2, 2.5 µM compound, read-out: % Inhibition of 2-DG uptake vs vehicle): ~70%
Cc1ccc(S(=O)(=O)CCNC(=O)c2c(-c3c(Cl)cccc3Cl)noc2C)cc1 [WU-1, 3-(2,6-dichlorophenyl)-5-methyl-N-[2-(4-methylbenzenesulfonyl)ethyl]-1,2-oxazole-4-carboxamide] | 100 | 99.2 | 96.1 | 89.1 | 94 | 88.4 | 86.8 | 74.7 | 64.7 | 61.9 | > 100 | 100 | 108 | 110 | 83 | ~10 | 73.8 | 54.5 | > 50 | 52.4 µM | IC50 for inhibition of 2-DG uptake, individual experiments (hGLUT4; GLUT4, Expt 1-3): ambiguous; remaining activity at 5 µM (hGLUT4; HEK293, 4 min): 102%; remaining activity at 10 µM (hGLUT4; HEK293, 4 min): 83.2%; inhibition at 5 µM (hGLUT4; HEK293, 4 min, read-out: % Inhibition of 2-DG uptake vs vehicle): -1.91%; IC50 for inhibition of 2-DG uptake, individual experiments (hGLUT2; GLUT2, Expt 1-3): ambiguous
